In patent US9555038B2, “Heterocycle-substituted tetracyclic compounds and methods of use thereof for the treatment of viral diseases” (Merck Sharp & Dohme Corp., priority 2013, dated 2017):
Read-outs that look alike come from different tables or passages of the source.

Assays:
HCV replicon 1A = test: Cell-based HCV Replicon Assay A, replicon 1A
Summary of the method: (§1)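 Replicon cells were seeded at 2000 cells/well with test compound in 10 serial dilutions, starting at 333.3 nM to 1.667 nM, in 0.5% DMSO and 5% FBS. On day 3, cells were washed and lysed, and replicon RNA was quantified by multiplex TaqMan RT-PCR normalised to cyclophilin.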

HCV replicon 1AY93H = test: Cell-based HCV Replicon Assay A, replicon 1AY93H
Summary of the method: as §1

HCV replicon 2B = test: Cell-based HCV Replicon Assay A, replicon 2B
Summary of the method: as §1

HCV replicon 1AQ30D = test: Cell-based HCV Replicon Assay B, replicon 1AQ30D
Method: (§2) In an alternate assay (“Replicon Assay B”), 1000 cells were seeded per well in a 384-well collagen coated black plate from Greiner bio-one (Cat #781946) in 5% FBS. Inhibitors of this invention were added at 24 h post-seeding, and the plates were incubated for 3 days. Cells were subsequently lysed with Qiagen lysis buffer (Cat #1062731) to extract the RNA. HCV replicon RNA level was measured by real-time PCR using the RNA-to-CT kit from Applied Biosystem (Cat #4392656) and genotype-specific primers and probes. The amplicon was located within NS5B. The sequence of the PCR primers are as follows: 5B.2F, ATGGACAGGCGCCCTGA (SEQ. ID NO. 1); 5B.2R, […] (SEQ. ID NO. 2); the probe sequence was FAM-labeled CACGCCATGCGCTGCGG (SEQ. ID NO. 3). To detect genotype 1A the primer 1A F, TGCGGAACCGGTGAGTACA and 1A R, […] were used; the probe sequence was FAM-[…].
(§3) The real-time RT-PCR reactions were run on ABI PRISM 7900HT or Viia7 Sequence Detection System using the following program: 48° C. for 30 minutes, 95° C. for 10 minutes, 40 cycles of 95° C. for 15 sec, 60° C. for 1 minutes. The 50% effective concentration (EC50) was the drug concentration necessary to achieve an increase in the cycle threshold (CT) of 1 over the projected baseline CT.
(§4) Data was obtained for various compounds of the present invention using the methods described in the Example above, and is presented in the table immediately below. Data for replicons 1A, 1AY93H and 2B were obtained using Replicon Assay A and data for replicons 1AQ30D and 1B were obtained using Replicon Assay B.

HCV replicon 1B = test: Cell-based HCV Replicon Assay B, replicon 1B
Method: as §2, §3, §4

[1] = Hepatitis C virus, read-out: 1A Y93H IC50 (nM), replicon 1AY93H
[2] = Hepatitis C virus, read-out: 2B IC50 (nM), replicon 2B
[3] = Hepatitis C virus, read-out: 1A Q30D IC50 (nM), replicon 1AQ30D
[4] = read-out: 1A Y93H IC50, replicon 1AY93H
[5] = read-out: 1A Q30D IC50, replicon 1AQ30D

| SMILES | IC50 (HCV replicon 1A; Hepatitis C virus) | IC50 (HCV replicon 1AY93H; [1]) | IC50 (HCV replicon 2B; [2]) | IC50 (HCV replicon 1AQ30D; [3]) | IC50 (HCV replicon 1B; Hepatitis C virus) | IC50 (HCV replicon 2B; read-out: 2B IC50, replicon 2B) | IC50 (HCV replicon 1AY93H; [4]) | IC50 (HCV replicon 1B) | IC50 (HCV replicon 1AQ30D; [5]) | IC50 (HCV replicon 1A) | IC50 (HCV replicon 1AQ30D; replicon 1AQ30D, read-out: 1A Q30D IC50) |
| --- | --- | --- | --- | --- | --- | --- | --- | --- | --- | --- | --- |
| COC(=O)N[C@H](C(=O)N1CCC[C@H]1c1ncc(-c2cc(F)c3c(c2)OC(c2cnc(-c4ccccn4)s2)n2c-3cc3cc(-c4cnc([C@@H]5CCCN5C(=O)[C@@H](NC(=O)OC)C(C)C)[nH]4)ccc32)[nH]1)C(C)C (mixture of isomers) [Compound 407] | 0.0027 nM | 0.143 nM | 0.192 nM | 0.482 nM | 0.004 nM |  |  |  |  |  |  |
| COC(=O)N[C@H](C(=O)N1CCC[C@H]1c1ncc(-c2cc(F)c3c(c2)OC(c2cnc(C)s2)n2c-3cc3cc(-c4cnc([C@@H]5CCCN5C(=O)[C@@H](NC(=O)OC)C(C)C)[nH]4)ccc32)[nH]1)C(C)C (mixture of isomers) [Compound 416] | 0.0022 nM | 0.085 nM | 0.119 nM | 1.77 nM | 0.003 nM |  |  |  |  |  |  |
| COC(=O)N[C@H](C(=O)N1CCC[C@H]1c1ncc(-c2cc(F)c3c(c2)OC(c2cnc(C(C)(C)C)s2)n2c-3cc3cc(-c4cnc([C@@H]5CCCN5C(=O)[C@@H](NC(=O)OC)C(C)C)[nH]4)ccc32)[nH]1)C(C)C (mixture of isomers) [Compound 418] | 0.0023 nM | 0.0083 nM | 0.095 nM | 0.255 nM | 0.003 nM |  |  |  |  |  |  |
| COC(=O)N[C@H](C(=O)N1CCC[C@H]1c1ncc(-c2cc(F)c3c(c2)OC(c2cnc(-c4cccnc4)s2)n2c-3cc3cc(-c4cnc([C@@H]5CCCN5C(=O)[C@@H](NC(=O)OC)C(C)C)[nH]4)ccc32)[nH]1)C(C)C (mixture of isomers) [Compound 422] | 0.021 nM |  | 35.2 nM | 1.67 nM | 0.015 nM |  |  |  |  |  |  |
| COC(=O)N[C@H](C(=O)N1CCC[C@H]1c1ncc(-c2cc(F)c3c(c2)OC(c2cnc(-c4cnccn4)s2)n2c-3cc3cc(-c4cnc([C@@H]5CCCN5C(=O)[C@@H](NC(=O)OC)C(C)C)[nH]4)ccc32)[nH]1)C(C)C (mixture of isomers) [Compound 423] | 0.0053 nM | 0.0526 nM | 0.041 nM | 0.444 nM | 0.007 nM |  |  |  |  |  |  |
| COC(=O)N[C@H](C(=O)N1CCC[C@H]1c1ncc(-c2cc(F)c3c(c2)OC(c2cnc(C4(C)CCOCC4)s2)n2c-3cc3cc(-c4cnc([C@@H]5CCCN5C(=O)[C@@H](NC(=O)OC)C(C)C)[nH]4)ccc32)[nH]1)C(C)C (mixture of isomers) [Compound 456] |  | 0.021 nM | 0.316 nM | 0.559 nM | 0.0027 nM |  |  |  |  |  |  |
| COC(=O)N[C@H](C(=O)N1CCC[C@H]1c1ncc(-c2cc(F)c3c(c2)OC(c2cnc(C4CC4C)s2)n2c-3cc3cc(-c4cnc([C@@H]5CCCN5C(=O)[C@@H](NC(=O)OC)C(C)C)[nH]4)ccc32)[nH]1)C(C)C (mixture of isomers) [Compound 491] | 0.0029 nM | 0.01 nM | 0.013 nM | 0.3 nM | 0.0026 nM |  |  |  |  |  |  |
| CCC(CC)c1ncc(C2Oc3cc(-c4cnc([C@@H]5CCCN5C(=O)[C@@H](NC(=O)OC)C(C)C)[nH]4)cc(F)c3-c3cc4cc(-c5cnc([C@@H]6CCCN6C(=O)[C@@H](NC(=O)OC)C(C)C)[nH]5)ccc4n32)s1 (mixture of isomers) [Compound 524] | 0.003 nM | 0.008 nM | 0.105 nM | 0.183 nM | 0.002 nM |  |  |  |  |  |  |
| COC(=O)N[C@H](C(=O)N1CCC[C@H]1c1ncc(-c2cc(F)c3c(c2)OC(c2cncs2)n2c-3cc3cc(-c4cnc([C@@H]5CCCN5C(=O)[C@@H](NC(=O)OC)C(C)C)[nH]4)ccc32)[nH]1)C(C)C (single isomer, unassigned) [Compound 2] | 0.0035 nM | 6.95 nM |  | 38.3 nM | 0.03 nM | 2.31 nM |  |  |  |  |  |
| COC(=O)N[C@H](C(=O)N1CCC[C@H]1c1ncc(-c2cc(F)c3c(c2)OC(c2cnns2)n2c-3cc3cc(-c4cnc([C@@H]5CCCN5C(=O)[C@@H](NC(=O)OC)C(C)C)[nH]4)ccc32)[nH]1)C(C)C (single isomer, unassigned) [Compound 3] | 0.0015 nM |  |  | 1.05 nM | 0.002 nM | 0.14 nM | 0.048 nM |  |  |  |  |
| COCc1ncc(C2Oc3cc(-c4cnc([C@@H]5CCCN5C(=O)[C@@H](NC(=O)OC)C(C)C)[nH]4)cc(F)c3-c3cc4cc(-c5cnc([C@@H]6CCCN6C(=O)[C@@H](NC(=O)OC)C(C)C)[nH]5)ccc4n32)s1 (single isomer, unassigned) [Compound 18] |  |  |  | 0.072 nM |  | 0.016 nM | 0.0069 nM | 0.001 nM |  |  |  |
| COC(=O)N[C@H](C(=O)N1CCC[C@H]1c1ncc(-c2cc(F)c3c(c2)OC(c2cnc(C4CC4)s2)n2c-3c(F)c3cc(-c4cnc([C@@H]5CCCN5C(=O)[C@@H](NC(=O)OC)C(C)C)[nH]4)ccc32)[nH]1)C(C)C (single isomer, unassigned) [Compound 21] |  |  |  | 0.494 nM | 0.004 nM | 0.012 nM | 0.0177 nM |  |  |  |  |
| COC(=O)N[C@H](C(=O)N1CCC[C@H]1c1ncc(-c2cc(F)c3c(c2)OC(c2ncc(-c4ccc(C#N)cc4)s2)n2c-3cc3cc(-c4cnc([C@@H]5CCCN5C(=O)[C@@H](NC(=O)OC)C(C)C)[nH]4)ccc32)[nH]1)C(C)C (single isomer, unassigned) [Compound 44] |  |  |  |  |  | 0.054 nM | 0.103 nM | 0.002 nM | 0.778 nM |  |  |
| COC(=O)N[C@H](C(=O)N1CCC[C@H]1c1ncc(-c2cc(F)c3c(c2)OC(c2cnc(Oc4ccc(F)cc4)s2)n2c-3cc3cc(-c4cnc([C@@H]5CCCN5C(=O)[C@@H](NC(=O)OC)C(C)C)[nH]4)ccc32)[nH]1)C(C)C (single isomer, unassigned) [Compound 49] | 0.001 nM |  |  |  | 0.002 nM | 0.002 nM |  |  | 0.029 nM |  |  |
| COC(=O)N[C@H](C(=O)N1CCC[C@H]1c1ncc(-c2cc(F)c3c(c2)OC(c2cnc(Oc4ccc(F)cc4)s2)n2c-3cc3cc(-c4cnc([C@@H]5CCCN5C(=O)[C@@H](NC(=O)OC)C(C)C)[nH]4)ccc32)[nH]1)C(C)C (single isomer, unassigned) [Compound 50] |  |  |  |  |  | 0.158 nM | 0.119 nM | 0.001 nM | 1.22 nM |  |  |
| COC(=O)N[C@H](C(=O)N1CCC[C@H]1c1ncc(-c2cc(F)c3c(c2)OC(c2cnc(C(C)C)s2)n2c-3cc3cc(-c4cnc([C@@H]5CCCN5C(=O)[C@@H](NC(=O)OC)C(C)C)[nH]4)ccc32)[nH]1)C(C)C (single isomer, unassigned) [Compound 86] |  | 0.0063 nM |  | 0.187 nM | 0.002 nM | 0.028 nM |  |  |  |  |  |
| CCCc1ncc(C2Oc3cc(-c4cnc([C@@H]5CCCN5C(=O)[C@@H](NC(=O)OC)C(C)C)[nH]4)cc(F)c3-c3cc4cc(-c5cnc([C@@H]6C[C@H]7C[C@H]7N6C(=O)C(NC(=O)OC)C6CCOC(C)(C)C6)[nH]5)ccc4n32)s1 (single isomer, unassigned) [Compound 105] |  |  |  |  |  |  | 0.0029 nM | 0.004 nM | 0.017 nM | 0.0022 nM |  |
| COC(=O)NC(C(=O)N1CCC[C@H]1c1ncc(-c2ccc3c(c2)cc2n3C(c3cnc(C4CCC4)s3)Oc3cc(-c4cnc([C@@H]5CCCN5C(=O)[C@@H](NC(=O)OC)C(C)C)[nH]4)cc(C)c3-2)[nH]1)C1C[C@@H](C)O[C@H](C)C1 (single isomer, unassigned) [Compound 220] | 0.004 nM | 0.01 nM |  | 0.046 nM | 0.005 nM |  |  |  |  |  |  |
| COC(=O)NC(C(=O)N1CCC[C@H]1c1ncc(-c2ccc3c(c2)cc2n3C(c3cnc(C4CC4)s3)Oc3cc(-c4cnc([C@@H]5CCCN5C(=O)[C@@H](NC(=O)OC)C(C)C)[nH]4)cc(F)c3-2)[nH]1)C1C[C@@H](C)O[C@H](C)C1 (single isomer, unassigned) [Compound 305] |  |  |  |  |  |  | 0.0031 nM | 0.004 nM | 0.015 nM | 0.003 nM |  |
| COC(=O)N[C@H](C(=O)N1CCC[C@H]1c1ncc(-c2cc(F)c3c(c2)OC(c2csc(C4CC4)n2)n2c-3cc3cc(-c4cnc([C@@H]5CCCN5C(=O)[C@@H](NC(=O)OC)C(C)C)[nH]4)ccc32)[nH]1)C(C)C (single isomer, unassigned) [Compound 433] |  |  |  | 1.6 nM |  | 0.3 nM | 0.06 nM | 0.001 nM |  |  |  |
| COC(=O)NC(C(=O)N1C(c2ncc(-c3cc(F)c4c(c3)OC(c3cnc(C5CC5)s3)n3c-4cc4cc(-c5cnc(C6CC7(C)CC7N6C(=O)C(NC(=O)OC)C(C)C)[nH]5)ccc43)[nH]2)CC2(C)CC12)C(C)C (stereo not shown) [Compound 533] |  |  |  |  |  |  |  | 0.0196 nM |  | 0.0262 nM | 2.52 nM |
